Source: patent US20240252454A1, “COMPOSITION COMPRISING AN INHIBITOR OF MITOCHONDRIAL TRANSCRIPTION” (LEAD DISCOVERY CENTER GMBH, priority 2021, published 2024)

Tests used:
[1] = test system: MV4-11; assay: CellTiter-GLO (CTG) assay, combinatorial matrix; type: cell-based; conditions: MV4-11, CTG matrix of the IMT with Bcl-2 inhibitor (Venetoclax, Table 10), wide concentration range
Procedure: To determine the in vitro cellular viability, cellular ATP concentrations were measured using a luminescence-based homogenous assay format, as described here. […] Optimal cell density for each cell line was determined to guarantee linearity. For viability assays with compounds, cells were then seeded at a density of 200 to 1000 per well in 25 μl in 384-well plates (Greiner Bio-One, Frickenhausen, Germany). After overnight incubation at 37° C./5% CO2, 25 nl or 75 nl compounds were added to each sample well by using BIOMEK FXP Laboratory Automation Workstation (Beckman Coulter, USA). Wells with cells and 0.1% or 0.3% DMSO in culture medium were used as positive controls, wells with cells and 10 μM staurosporine (Selleck Chemicals, Huston, USA) in culture medium were used as negative controls. […] Luminescence was measured by Envision Plate Reader (Perkin Elmer, USA). […]
The general suitability of IMT substances for a combination with standard inhibitors of the Bcl-2 signalling pathway was first determined in in vitro cell culture experiments in a matrix format (Table 10). The changes in the cellular ATP content, as an indicator of the metabolic activity of the cells, were measured using the CellTiter-GLO Assay (CTG), as described in Example 1).

[2] = test system: MOLM-13; assay: apoptosis induction, flow cytometry; type: cell-based
Procedure: (§1) This analysis was carried out using flow cytometry and the established cellular markers for necrosis, apoptosis and living cells.
(§2) These experiments were followed by a broader analysis of the apoptosis induction by the inhibitor combination used in the four AML cell lines MV4-11, MOLM-13, OCI-AML3 and OCI-AML2 (FIG. 3). This analysis was carried out using flow cytometry and the established cellular markers for necrosis, apoptosis and living cells.

[3] = test system: MV4-11; assay: apoptosis induction, flow cytometry; type: cell-based
Procedure: as §1, §2

[4] = test system: OCI-AML2; assay: apoptosis induction, flow cytometry; type: cell-based; conditions: IMT alone, flow cytometry (FIG. 3)
Procedure: as §1, §2

[5] = test system: OCI-AML3; assay: apoptosis induction, flow cytometry; type: cell-based; conditions: IMT alone, flow cytometry (FIG. 3)
Procedure: as §1, §2

[6] = PK and toxicological studies, plasma and liver concentrations; type: in vivo; conditions: oral combination of the IMT and Venetoclax in 0.5% methyl cellulose in water, NBSGW mice, 4 hours, plasma and liver (FIG. 4)
Procedure: Combinations s of 2-[(3R)-1-[(2R)-2-[4-(2-chloro-4-fluoro-phenyl)-2-oxo-chromen-7-yl]oxypropanoyl]-3-piperidyl]acetic acid and Venetoclax were administered orally in a formulation of 0.5% methyl cellulose in water, before the respective substance concentrations (y-axis) of Venetoclax (left) or 2-[(3R)-1-[(2R)-2-[4-(2-chloro-4-fluoro-phenyl)-2-oxo-chromen-7-yl]oxypropanoyl]-3-piperidyl]acetic acid (right) after 4 hours and extraction from blood plasma or liver tissue were analysed by LC-MS. Error bars indicate the standard deviation around the mean of the multiple measurements.
For this, a vehicle formulation suitable for the oral administration of the combination of Venetoclax and 2-[(3R)-1-[(2R)-2-[4-(2-chloro-4-fluoro-phenyl)-2-oxo-chromen-7-yl]oxypropanoyl]-3-piperidyl]acetic acid was prepared to examine its pharmacokinetic suitability. Since the formulations based on ethanol, PEG-400 and Phosal that have been published for Venetoclax have not proven to be suitable for generating an administrable solution or suspension of IMT and Venetoclax, a simplified formulation of 0.5% methyl cellulose in water was prepared, which was tested initially in PK and toxicological studies in NBSGW mice (FIG. 4). […] On the other hand, doses that could be safely used were established in this mouse model, with which the subsequent studies could be carried out.

[7] = test system: Venetoclax-resistant PDX AML cells; assay: in vivo PDX study in a Venetoclax-resistant model; conditions: NSGS mice
Excerpt: A=overview of the study implementation (corresponding to FIG. 5A) in NSGS mice injected with spleenocytes (n=12). B=flow cytometric analysis and % of live hCD45+AML cells in peripheral blood, spleen and bone marrow of the treated groups; C=immunohistological analysis of bone marrow and spleen tissue sections stained with hcd45 (brown); Quantitative analysis of the hCD45+ cells from C with three technical replicates (n=2). E=blood analysis of the survival group; F=Kaplan-Meier survival analysis (n=6 per group). […] The procedure was similar to that previously described for the CDX model, except for the addition of an endpoint control cohort in each treatment group.

[8] = IMT alone, flow cytometry (FIG. 3)
[9] = IMT combined with Venetoclax, compared to Venetoclax alone

C[C@@H](Oc1ccc2c(-c3ccc(F)cc3Cl)cc(=O)oc2c1)C(=O)N1CCC[C@H](CC(=O)O)C1 [2-[(3R)-1-[(2R)-2-[4-(2-chloro-4-fluoro-phenyl)-2-oxo-chromen-7-yl]oxypropanoyl]-3-piperidyl]acetic acid]
combinatorial effect (cellular ATP content) [1]: additive or even synergistic effect
induction of apoptosis [2, 8]: cannot trigger apoptosis
induction of apoptosis [2, 9]: increases the induction of apoptosis significantly
induction of apoptosis [3, 8]: cannot trigger apoptosis
induction of apoptosis [3, 9]: increases the induction of apoptosis significantly
induction of apoptosis [4]: cannot trigger apoptosis
induction of apoptosis [5]: cannot trigger apoptosis
PK parameters, in particular the plasma and tissue concentrations [6]: do not significantly influence one another
tumour load and circulating hCD45-positive AML cells ([7]; IMT combined with Venetoclax vs individual inhibitors or control, peripheral blood, bone marrow, spleen (FIG. 6)): significantly lower
overall survival (survival analysis) ([7]; IMT/Bcl-2i combination, treatment lasting 21 days): long-lasting, synergistic effect
